These are literature values, as cited in patent US8883830B2, “Topical therapy for the treatment of migraines, muscle sprains, muscle spasms, spasticity and related conditions” (Afgin Pharma LLC., priority 2003, dated 2014).

The conditions of series [1]: relative to ergotamine.

Molecules are shown by their SMILES.

As to `CN1C[C@H](C(=O)N[C@]2(C)O[C@@]3(O)[C@@H]4CCCN4C(=O)[C@H](Cc4ccccc4)N3C2=O)C[C@@H]2c3cccc4[nH]cc(c34)C[C@H]21` [Dihydroergotamine], the “emetic activity compared with ergotamine” value in series [1] is reported as “about 12 times less active”. On to `CNS(=O)(=O)CCc1ccc2[nH]cc(C3CCN(C)CC3)c2c1` [naratriptan], for which the oral bioavailability is given as around 70%.
